From US11401271B2, “Fused heterocyclic compound, pyrazole-ring-containing fused heterocyclic compound, agricultural composition containing thereof, and method of using the composition” (SOUTH CHINA AGRICULTURAL UNIVERSITY, priority 2017, dated 2022)
Where two headings read alike, the source gives them in different places.

Experiments:
Format in all cases: in vivo
Solenopsis invicta = experiment: whole plant or invertebrate; conditions: Solenopsis invicta, water test tube poison-feeding
Summary of the method: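 Fire ants fed compound by water test-tube poison-feeding at 100 ppm in aqueous 0.05% Tween-80/5% honey (from 10 g/L DMSO stock), kept at 25 °C. Live and dead ants counted at 24 and 72 h; mortality (%) calculated relative to live ants in the untreated control.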

Spodoptera exigua = experiment: whole plant or invertebrate; conditions: Spodoptera exigua, 24 h, read-out: Spodoptera exigua Mortality (%) 500 ppm
Summary of the method: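 Cabbage leaf discs dipped 5 s in 500 ppm compound (0.05% Tween-80 aqueous), air-dried, fed to about 35 2nd-instar larvae at 28° C, three replicates. Deaths counted at 24 h; mortality corrected against Tween-80 control.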

Plutella xylostella = experiment: whole plant or invertebrate; conditions: Plutella xylostella, read-out: Plutella xylostella Mortality (%) 500 ppm
Summary of the method: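 Cabbage leaf discs dipped 5 s in compound at 500 ppm (0.05% Tween-80 aqueous), air-dried, fed to about 35 2nd-instar larvae at 28° C., triplicate. Dead larvae counted after 24 h; mortality (%) corrected against Tween-80 control.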

Aphis craccivora = experiment: whole plant or invertebrate; conditions: Aphis craccivora, 24 h, read-out: Aphis craccivora Mortality (%) 500 ppm
Summary of the method: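 Wingless adults feeding on bean sprouts were dipped with the sprouts for 5 s in 500 ppm compound in aqueous 0.05% Tween-80, air-dried, then held at 23° C. Dead aphids counted after 24 h, triplicate, with 0.05% Tween-80 as control. Mortality (%) = (control live − treated live)/control live × 100.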

Bombyx mori L. = experiment: Toxicity test on 2nd-instar larvae of Bombyx mori L., leaf immersion feeding method; conditions: 1000 ppm, 24 hours
Summary of the method: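 Second-instar silkworm larvae (~35 per vessel, 3 replicates) fed mulberry leaves dipped 5 s in 1000 ppm compound (0.05% Tween-80; DMSO stock diluted), held at 25 °C. Deaths counted after 24 hours; mortality % corrected against Tween-80 control survivors.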

Apis cernan = experiment: Toxicity test on adult worker bees of Apis cernan, small beaker method; conditions: 500 ppm, 48 hours
Summary of the method: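 Same-size adult Apis cernan workers, collected the test morning, exposed in groups of 15 to cotton soaked with 500 ppm test liquid (small beaker method). Kept sealed in a dark climate box; live and dead bees counted after 48 h.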

[1] = 24 h, read-out: Solenopsis invicta Mortality (%) 100 ppm 24 h, 100 ppm, 24 h
[2] = 72 h, read-out: Solenopsis invicta Mortality (%) 100 ppm 72 h, 100 ppm, 72 h

**Q.** C=CC1Nc2c(-c3cc(C)oc3C)c(C#N)nn2-c2c(Cl)cc(C(F)(F)F)cc21 (centres unmarked) [Compound C50] was tested. Which mortality at 100 ppm (Solenopsis invicta; [1]) did it give?
**A.** 26%

**Q.** And the mortality at 100 ppm (Solenopsis invicta; [2])?
**A.** 86%

**Q.** What about the mortality at 500 ppm (Spodoptera exigua) of the same compound?
**A.** 86%

**Q.** And the mortality at 500 ppm (Plutella xylostella)?
**A.** 81%

**Q.** And the mortality at 500 ppm (Aphis craccivora)?
**A.** 90%

**Q.** What about the “Toxicity determination Bombyx mori L. Mortality (%)” value (Bombyx mori L.) of the same compound?
**A.** 5%

**Q.** What about the “Toxicity determination Apis cernan Mortality (%)” value (Apis cernan) of the same compound?
**A.** 2%

**Q.** Which results are given for N#Cc1nn2c(c1[S+]([O-])C(F)(F)F)NC(C(O)CO)c1cc(C(F)(F)F)cc(Cl)c1-2 (centres unmarked) [Compound C51]?
**A.** mortality at 100 ppm (Solenopsis invicta; [1]): 19%; mortality at 100 ppm (Solenopsis invicta; [2]): 86%; mortality at 500 ppm (Spodoptera exigua): 85%; mortality at 500 ppm (Plutella xylostella): 87%; mortality at 500 ppm (Aphis craccivora): 79%; Toxicity determination Bombyx mori L. Mortality (%) (Bombyx mori L.): 9%; Toxicity determination Apis cernan Mortality (%) (Apis cernan): 5%

**Q.** How did the mortality at 100 ppm (Solenopsis invicta; [1]) turn out when Cc1cc(-c2c(C#N)nn3c2NC(C(O)CO)c2cc(C(F)(F)F)cc(Cl)c2-3)c(C)o1 (centres unmarked) [Compound C52] was run?
**A.** 22%

**Q.** And the mortality at 100 ppm (Solenopsis invicta; [2])?
**A.** 90%

**Q.** What about the mortality at 500 ppm (Spodoptera exigua) of the same compound?
**A.** 91%

**Q.** And the mortality at 500 ppm (Plutella xylostella)?
**A.** 90%

**Q.** What about the mortality at 500 ppm (Aphis craccivora) of the same compound?
**A.** 100%

**Q.** What about the “Toxicity determination Bombyx mori L. Mortality (%)” value (Bombyx mori L.) of the same compound?
**A.** 10%

**Q.** What about the “Toxicity determination Apis cernan Mortality (%)” value (Apis cernan) of the same compound?
**A.** 7%

**Q.** With N#Cc1nn2c(c1[S+]([O-])C(F)(F)F)NC(CC(F)(F)F)(C(O)CO)c1cc(C(F)(F)F)cc(Cl)c1-2 (centres unmarked) [Compound C56] as the compound, how does the mortality at 100 ppm (Solenopsis invicta; [1]) read?
**A.** 27%

**Q.** And the mortality at 100 ppm (Solenopsis invicta; [2])?
**A.** 80%

**Q.** And the mortality at 500 ppm (Spodoptera exigua)?
**A.** 87%

**Q.** And the mortality at 500 ppm (Plutella xylostella)?
**A.** 82%

**Q.** What about the mortality at 500 ppm (Aphis craccivora) of the same compound?
**A.** 91%

**Q.** And the “Toxicity determination Bombyx mori L. Mortality (%)” value (Bombyx mori L.)?
**A.** 6%

**Q.** What about the “Toxicity determination Apis cernan Mortality (%)” value (Apis cernan) of the same compound?
**A.** 8%

**Q.** Which results are given for COC(=O)/C=C/C1(CC#N)Nc2c([S+]([O-])C(F)(F)F)c(C#N)nn2-c2c(Cl)cc(C(F)(F)F)cc21 (centres unmarked) [Compound C58]?
**A.** mortality at 100 ppm (Solenopsis invicta; [1]): 29%; mortality at 100 ppm (Solenopsis invicta; [2]): 98%; mortality at 500 ppm (Spodoptera exigua): 100%; mortality at 500 ppm (Plutella xylostella): 100%; mortality at 500 ppm (Aphis craccivora): 100%; Toxicity determination Bombyx mori L. Mortality (%) (Bombyx mori L.): 4%; Toxicity determination Apis cernan Mortality (%) (Apis cernan): 4%

**Q.** What does the source list for C=CC1(C=C)Nc2c(Br)c(CC)nn2-c2c(Cl)cc(C(F)(F)F)cc21 [Compound C61]?
**A.** mortality at 100 ppm (Solenopsis invicta; [1]): 28%; mortality at 100 ppm (Solenopsis invicta; [2]): 100%; mortality at 500 ppm (Spodoptera exigua): 100%; mortality at 500 ppm (Plutella xylostella): 88%; mortality at 500 ppm (Aphis craccivora): 90%; Toxicity determination Bombyx mori L. Mortality (%) (Bombyx mori L.): 9%; Toxicity determination Apis cernan Mortality (%) (Apis cernan): 10%

**Q.** With C=CC1(C=C)Nc2c(-c3cc(C)sc3C)c(CC)nn2-c2c(Cl)cc(C(F)(F)F)cc21 [Compound C62] as the compound, how does the mortality at 100 ppm (Solenopsis invicta; [1]) read?
**A.** 27%

**Q.** And the mortality at 100 ppm (Solenopsis invicta; [2])?
**A.** 100%

**Q.** What about the mortality at 500 ppm (Spodoptera exigua) of the same compound?
**A.** 85%

**Q.** And the mortality at 500 ppm (Plutella xylostella)?
**A.** 80%

**Q.** What about the mortality at 500 ppm (Aphis craccivora) of the same compound?
**A.** 97%

**Q.** And the “Toxicity determination Bombyx mori L. Mortality (%)” value (Bombyx mori L.)?
**A.** 10%

**Q.** What about the “Toxicity determination Apis cernan Mortality (%)” value (Apis cernan) of the same compound?
**A.** 11%

**Q.** With CCc1nn2c(c1-c1cc(C)sc1C)NC(/C=C\C(=O)OC)(/C=C/C(=O)OC)c1cc(C(F)(F)F)cc(Cl)c1-2 (centres unmarked) [Compound C64] as the compound, how does the mortality at 100 ppm (Solenopsis invicta; [1]) read?
**A.** 17%

**Q.** What about the mortality at 100 ppm (Solenopsis invicta; [2]) of the same compound?
**A.** 90%

**Q.** What about the mortality at 500 ppm (Spodoptera exigua) of the same compound?
**A.** 97%

**Q.** What about the mortality at 500 ppm (Plutella xylostella) of the same compound?
**A.** 92%

**Q.** And the mortality at 500 ppm (Aphis craccivora)?
**A.** 100%

**Q.** What about the “Toxicity determination Bombyx mori L. Mortality (%)” value (Bombyx mori L.) of the same compound?
**A.** 7%

**Q.** And the “Toxicity determination Apis cernan Mortality (%)” value (Apis cernan)?
**A.** 9%
